Positions of bridges follow the written chain, without caps; N, C: chain ends. Non-standard residues stand in square brackets, D forms with d. Residues, ends and D or L forms follow the SMILES beside them. *: point of attachment. DOTA = O=C(O)CN1CCN(CC(=O)O)CCN(CC(=O)*)CCN(CC(=O)O)CC1; Butanoyl(4-(4-I-phenyl)) = O=C(CCCc1ccc(I)cc1)*; Trp(5-F) = N[C@@H](Cc1c[nH]c2ccc(F)cc12)C(=O)O; PEG8 = NCCOCCOCCOCCOCCOCCOCCOCCOCCC(=O)O; Ala(4-THP) = N[C@@H](CC1CCOCC1)C(=O)O; Val(3-OH) = CC(C)(O)[C@H](N)C(=O)O; hPhe = N[C@@H](CCc1ccccc1)C(=O)O; tBuAla = CC(C)(C)C[C@H](N)C(=O)O; Cha = N[C@@H](CC1CCCCC1)C(=O)O; NMeK = CN[C@@H](CCCCN)C(=O)O; Tle = CC(C)(C)[C@H](N)C(=O)O; hLeu = CC(C)CC[C@H](N)C(=O)O; αMeK = C[C@](N)(CCCCN)C(=O)O; NMeC = CN[C@@H](CS)C(=O)O; Pip = O=C(O)[C@@H]1CCCCN1; Sar = CNCC(=O)O
Target: T1, human 4lg B7-H3 (Homo sapiens, UniProt Q5ZPR3)
T1 sequence (Q5ZPR3 29-534): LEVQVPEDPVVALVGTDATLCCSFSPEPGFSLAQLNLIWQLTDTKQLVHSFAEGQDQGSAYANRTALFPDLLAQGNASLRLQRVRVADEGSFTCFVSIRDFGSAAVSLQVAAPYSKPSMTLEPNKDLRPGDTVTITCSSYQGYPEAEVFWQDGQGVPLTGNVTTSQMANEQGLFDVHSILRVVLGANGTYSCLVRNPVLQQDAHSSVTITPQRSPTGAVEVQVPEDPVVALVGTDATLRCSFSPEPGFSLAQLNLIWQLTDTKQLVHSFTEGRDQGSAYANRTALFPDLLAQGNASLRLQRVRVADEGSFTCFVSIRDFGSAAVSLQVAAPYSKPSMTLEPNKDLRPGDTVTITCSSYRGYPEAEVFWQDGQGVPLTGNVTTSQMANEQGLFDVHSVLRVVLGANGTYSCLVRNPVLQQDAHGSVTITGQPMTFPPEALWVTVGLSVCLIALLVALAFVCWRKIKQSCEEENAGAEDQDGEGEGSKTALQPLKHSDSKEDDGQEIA
Test: Affinity determination by surface plasmon resonance (SPR) to 4Ig B7-H3
Settings: 4Ig B7-H3

[1] = SPR KD—37° C., 37° C. flow cell temperature
[2] = SPR KD—25° C., 25° C. flow cell temperature

For `CC(=O)N[C@@H](CCC(C)C)C(=O)N[C@@H](Cc1ccc(O)cc1)C(=O)N[C@H]1CSSC[C@@H](C(=O)N[C@@H](Cc2c[nH]c3ccc(F)cc23)C(=O)N[C@@H](Cc2ccccc2)C(=O)N[C@H](C(=O)N[C@H](CCCCNC(=O)CN2CCN(CC(=O)O)CCN(CC(=O)O)CCN(CC(=O)O)CC2)C(=O)O)C(C)(C)O)NC(=O)[C@H](Cc2ccc(O)cc2)NC(=O)[C@H](C(C)C)NC(=O)[C@H](CC(=O)O)NC(=O)[C@H](CC2CCOCC2)NC(=O)[C@H](CCCCN)NC(=O)CN(C)C(=O)[C@H](C(C)C)NC1=O` [compound 347, Ac-hLeu-Y-C-V-Sar-K-ThpA-D-V-Y-C-5FW-F-hydroxyVal-dLys(DOTA)-COOH] (Ac-[hLeu]YCV[Sar]K[Ala(4-THP)]DVYC[Trp(5-F)]F[Val(3-OH)][dK](DOTA)-OH; disulfide 3-11), the Kd [1] was < 1 nM.
In the case of `CC(=O)N[C@@H](CCC(C)C)C(=O)N[C@@H](Cc1ccc(O)cc1)C(=O)N[C@H]1CSSC[C@@H](C(=O)N[C@@H](Cc2c[nH]c3ccc(F)cc23)C(=O)N[C@@H](Cc2ccccc2)C(=O)N[C@H](C(=O)N[C@H](CCCCNC(=O)CN2CCN(CC(=O)O)CCN(CC(=O)O)CCN(CC(=O)O)CC2)C(=O)O)C(C)(C)O)NC(=O)[C@H](Cc2ccc(O)cc2)NC(=O)[C@H](C(C)C)NC(=O)[C@H](CC(=O)O)NC(=O)[C@H](CC2CCOCC2)NC(=O)[C@@H]2CCCN2C(=O)CNC(=O)[C@H](C(C)(C)C)NC1=O` [compound 349, Ac-hLeu-Y-C-Tbg-G-Pro-ThpA-D-V-Y-C-5FW-F-hydroxyVal-dLys(DOTA)-COOH] (Ac-[hLeu]YC[Tle]GP[Ala(4-THP)]DVYC[Trp(5-F)]F[Val(3-OH)][dK](DOTA)-OH; disulfide 3-11), the Kd [1] is reported as 10 to 100 nM.
Molecule `CC(=O)N[C@@H](CCC(C)C)C(=O)N[C@@H](Cc1ccc(O)cc1)C(=O)N[C@H]1CSSC[C@@H](C(=O)N[C@@H](Cc2c[nH]c3ccc(F)cc23)C(=O)N[C@@H](Cc2ccccc2)C(=O)N[C@H](C(=O)N[C@H](CCCCNC(=O)CN2CCN(CC(=O)O)CCN(CC(=O)O)CCN(CC(=O)O)CC2)C(=O)O)C(C)(C)O)NC(=O)[C@H](Cc2ccc(O)cc2)NC(=O)[C@H](C(C)C)NC(=O)[C@H](CC(=O)O)NC(=O)[C@H](CC2CCOCC2)NC(=O)[C@@H]2CCCCN2C(=O)CNC(=O)[C@H](C(C)(C)C)NC1=O` [compound 350, Ac-hLeu-Y-C-Tbg-G-Pip-ThpA-D-V-Y-C-5FW-F-hydroxyVal-dLys(DOTA)-COOH] (Ac-[hLeu]YC[Tle]G[Pip][Ala(4-THP)]DVYC[Trp(5-F)]F[Val(3-OH)][dK](DOTA)-OH; disulfide 3-11) has a Kd [1] of 10 to 100 nM.
With `CC(=O)N[C@@H](CCC(C)C)C(=O)N[C@@H](Cc1ccc(O)cc1)C(=O)N[C@H]1CSSC[C@@H](C(=O)N[C@@H](Cc2c[nH]c3ccc(F)cc23)C(=O)N[C@@H](Cc2ccccc2)C(=O)N[C@H](C(=O)N[C@H](CCCCNC(=O)CN2CCN(CC(=O)O)CCN(CC(=O)O)CCN(CC(=O)O)CC2)C(=O)O)[C@@H](C)O)NC(=O)[C@H](Cc2ccc(O)cc2)NC(=O)[C@H](C(C)C)NC(=O)[C@H](CC(=O)O)NC(=O)[C@H](CC2CCOCC2)NC(=O)[C@H](CCCCN)N(C)C(=O)CNC(=O)[C@H](C(C)(C)C)NC1=O` [compound 352, Ac-hLeu-Y-C-Tbg-G-NMeLys-ThpA-D-V-Y-C-5FW-F-Thr-dLys(DOTA)-COOH] (Ac-[hLeu]YC[Tle]G[NMeK][Ala(4-THP)]DVYC[Trp(5-F)]FT[dK](DOTA)-OH; disulfide 3-11) the Kd [2] was 10 to 100 nM.
`CC(=O)N[C@@H](CCC(C)C)C(=O)N[C@@H](Cc1ccc(O)cc1)C(=O)N[C@H]1CSSC[C@@H](C(=O)N[C@@H](Cc2c[nH]c3ccc(F)cc23)C(=O)N[C@@H](Cc2ccccc2)C(=O)N[C@H](C(=O)N[C@H](CCCCNC(=O)CN2CCN(CC(=O)O)CCN(CC(=O)O)CCN(CC(=O)O)CC2)C(=O)O)[C@@H](C)O)NC(=O)[C@H](Cc2ccc(O)cc2)NC(=O)[C@H](C(C)C)NC(=O)[C@H](CC(=O)O)NC(=O)[C@H](CC2CCOCC2)NC(=O)[C@](C)(CCCCN)NC(=O)CNC(=O)[C@H](C(C)(C)C)NC1=O` [compound 353, Ac-hLeu-Y-C-Tbg-G-aMeLys-ThpA-D-V-Y-C-5FW-F-Thr-dLys(DOTA)-COOH] (Ac-[hLeu]YC[Tle]G[αMeK][Ala(4-THP)]DVYC[Trp(5-F)]FT[dK](DOTA)-OH; disulfide 3-11) gave a Kd [2] of 100 to 300 nM.
`CC(=O)N[C@@H](CCC(C)C)C(=O)N[C@@H](Cc1ccc(O)cc1)C(=O)N[C@H]1CSSC[C@@H](C(=O)N[C@@H](CCc2ccccc2)C(=O)N[C@@H](Cc2ccccc2)C(=O)N[C@H](C(=O)N[C@H](CCCCNC(=O)CN2CCN(CC(=O)O)CCN(CC(=O)O)CCN(CC(=O)O)CC2)C(=O)O)[C@@H](C)O)NC(=O)[C@H](Cc2ccc(O)cc2)NC(=O)[C@H](C(C)C)NC(=O)[C@H](CC(=O)O)NC(=O)[C@H](CC2CCOCC2)NC(=O)[C@H](CCCCN)NC(=O)CNC(=O)[C@H](C(C)(C)C)NC1=O` [compound 359, Ac-hLeu-Y-C-Tbg-G-K-ThpA-D-V-Y-C-hF-F-Thr-dLys(DOTA)-COOH] (Ac-[hLeu]YC[Tle]GK[Ala(4-THP)]DVYC[hPhe]FT[dK](DOTA)-OH; disulfide 3-11) was tested, and the Kd [2] was 100 to 300 nM.
For `CC(=O)N[C@@H](CCC(C)C)C(=O)N[C@@H](Cc1ccc(O)cc1)C(=O)N[C@H]1CSSC[C@@H](C(=O)N[C@@H](Cc2c[nH]c3ccc(F)cc23)C(=O)N[C@@H](CC(C)(C)C)C(=O)N[C@H](C(=O)N[C@H](CCCCNC(=O)CN2CCN(CC(=O)O)CCN(CC(=O)O)CCN(CC(=O)O)CC2)C(=O)O)[C@@H](C)O)NC(=O)[C@H](Cc2ccc(O)cc2)NC(=O)[C@H](C(C)C)NC(=O)[C@H](CC(=O)O)NC(=O)[C@H](CC2CCOCC2)NC(=O)[C@H](CCCCN)NC(=O)CNC(=O)[C@H](C(C)(C)C)NC1=O` [compound 360, Ac-hLeu-Y-C-Tbg-G-K-ThpA-D-V-Y-C-5FW-tBuAla-Thr-dLys(DOTA)-COOH] (Ac-[hLeu]YC[Tle]GK[Ala(4-THP)]DVYC[Trp(5-F)][tBuAla]T[dK](DOTA)-OH; disulfide 3-11), the Kd [2] was 1 to 10 nM.
`CC(=O)N[C@@H](CCC(C)C)C(=O)N[C@@H](Cc1ccc(O)cc1)C(=O)N(C)[C@H]1CSSC[C@@H](C(=O)N[C@@H](Cc2c[nH]c3ccc(F)cc23)C(=O)N[C@@H](Cc2ccccc2)C(=O)N[C@H](C(=O)N[C@H](CCCCNC(=O)CN2CCN(CC(=O)O)CCN(CC(=O)O)CCN(CC(=O)O)CC2)C(=O)O)[C@@H](C)O)NC(=O)[C@H](Cc2ccc(O)cc2)NC(=O)[C@H](C(C)C)NC(=O)[C@H](CC(=O)O)NC(=O)[C@H](CC2CCOCC2)NC(=O)[C@H](CCCCN)NC(=O)CNC(=O)[C@H](C(C)C)NC1=O` [compound 361, Ac-hLeu-Y-NMeCys-V-G-K-ThpA-D-V-Y-C-5FW-F-Thr-dLys(DOTA)-COOH] (Ac-[hLeu]Y[NMeC]VGK[Ala(4-THP)]DVYC[Trp(5-F)]FT[dK](DOTA)-OH; disulfide 3-11) showed a Kd [2] of 1 to 10 nM.
With `CC(=O)N[C@@H](CCC(C)C)C(=O)N[C@@H](Cc1ccc(O)cc1)C(=O)N[C@H]1CSSC[C@@H](C(=O)N[C@@H](Cc2c[nH]c3ccc(F)cc23)C(=O)N[C@@H](Cc2ccccc2)C(=O)N[C@H](C(=O)N[C@H](CCCCNC(=O)CN2CCN(CC(=O)O)CCN(CC(=O)O)CCN(CC(=O)O)CC2)C(=O)O)[C@@H](C)O)NC(=O)[C@H](Cc2ccc(O)cc2)NC(=O)[C@H](C(C)C)NC(=O)[C@H](CC(=O)O)NC(=O)[C@H](CC2CCOCC2)NC(=O)[C@H](CCCCN)NC(=O)CN(C)C(=O)[C@H](C(C)C)NC1=O` [compound 362, Ac-hLeu-Y-C-V-Sar-K-ThpA-D-V-Y-C-5FW-F-Thr-dLys(DOTA)-COOH] (Ac-[hLeu]YCV[Sar]K[Ala(4-THP)]DVYC[Trp(5-F)]FT[dK](DOTA)-OH; disulfide 3-11) the Kd [2] was < 1 nM.
For `CC(C)CC[C@H](NC(=O)CCOCCOCCOCCOCCOCCOCCOCCOCCNC(=O)CCCc1ccc(I)cc1)C(=O)N[C@@H](Cc1ccc(O)cc1)C(=O)N[C@H]1CSSC[C@@H](C(=O)N[C@@H](Cc2c[nH]c3ccc(F)cc23)C(=O)N[C@@H](Cc2ccccc2)C(=O)N[C@H](C(=O)N[C@H](CCCCNC(=O)CN2CCN(CC(=O)O)CCN(CC(=O)O)CCN(CC(=O)O)CC2)C(=O)O)C(C)(C)O)NC(=O)[C@H](Cc2ccc(O)cc2)NC(=O)[C@H](C(C)C)NC(=O)[C@H](CC(=O)O)NC(=O)[C@H](CC2CCOCC2)NC(=O)[C@H](CCCCN)NC(=O)CNC(=O)[C@H](C(C)(C)C)NC1=O` [compound 365, AB-PEG8-hLeu-Y-C-Tbg-G-K-ThpA-D-V-Y-C-5FW-F-hydroxyVal-dLys(DOTA)-COOH] ({Butanoyl(4-(4-I-phenyl))-PEG8}-[hLeu]YC[Tle]GK[Ala(4-THP)]DVYC[Trp(5-F)]F[Val(3-OH)][dK](DOTA)-OH; disulfide 3-11), the Kd [1] was 10 to 100 nM.
For `CC(=O)N[C@@H](CC1CCCCC1)C(=O)N[C@@H](Cc1ccc(O)cc1)C(=O)N[C@H]1CSSC[C@@H](C(=O)N[C@@H](Cc2c[nH]c3ccc(F)cc23)C(=O)N[C@@H](Cc2ccccc2)C(=O)N[C@H](C(=O)N[C@H](CCCCNC(=O)CN2CCN(CC(=O)O)CCN(CC(=O)O)CCN(CC(=O)O)CC2)C(=O)O)C(C)(C)O)NC(=O)[C@H](Cc2ccc(O)cc2)NC(=O)[C@H](C(C)C)NC(=O)[C@H](CC(=O)O)NC(=O)[C@H](CC2CCOCC2)NC(=O)[C@H](CCCCN)NC(=O)CNC(=O)[C@H](C(C)(C)C)NC1=O` [compound 367, Ac-Cha-Y-C-Tbg-G-K-ThpA-D-V-Y-C-5FW-F-hydroxyVal-dLys(DOTA)-COOH] (Ac-[Cha]YC[Tle]GK[Ala(4-THP)]DVYC[Trp(5-F)]F[Val(3-OH)][dK](DOTA)-OH; disulfide 3-11), the Kd [1] was 1 to 10 nM.

— US20250296959A1, “B7-H3 TARGETING PEPTIDES AND CONSTRUCTS THEREOF” (Mariana Oncology Inc., priority 2024, published 2025)
